Measured values: ChEMBL document CHEMBL1201862, “PubChem BioAssay data set” (2004)
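Growth conditions: 96-well plates. Treatment: test compound, 48 hours, 5 concentrations. Analysis: linear interpolation between bracketing concentrations; unreached endpoints set to highest concentration. Here, GI50 denotes the concentration required for 50% inhibition of growth.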 Activity calls are given as the source filed them. Cut-off read from the data, not from the text of the source: active = GI50 up to about 1.1 µM and inactive = higher.

Legend:
Experiment in all cases: growth of human tumour cells (NCI), 48 h
[1] = system: SK-MEL-28
[2] = system: SF-268
[3] = system: TK-10
[4] = system: IGROV-1
[5] = system: UACC-62
[6] = system: NCI-H23
[7] = system: COLO 205
[8] = system: MDA-MB-435
[9] = system: SW-620
[10] = system: RXF 393
[11] = system: HOP-62
[12] = system: 786-0
[13] = system: M14
[14] = system: SF-295
[15] = system: SK-MEL-5
[16] = system: OVCAR-5
[17] = system: Malme-3M
[18] = system: KM12
[19] = system: HL-60
[20] = system: SR

Row | SMILES | GI50 [1] | GI50 [2] | GI50 [3] | GI50 [4] | GI50 [5] | GI50 [6] | GI50 [7] | GI50 [8] | GI50 [9] | GI50 [10] | GI50 [11] | GI50 [12] | GI50 [13] | GI50 [14] | GI50 [15] | GI50 [16] | GI50 [17] | GI50 [18] | GI50 [19] | GI50 [20]
1 | C=CCCCC1(C)CCNC1=S (configuration not stated) | > 100 µM (inactive) | > 100 µM (inactive) | > 100 µM (inactive) | > 100 µM (inactive) | > 100 µM (inactive) | > 100 µM (inactive) | > 100 µM (inactive) | > 100 µM (inactive) | > 100 µM (inactive) | > 100 µM (inactive) | > 100 µM (inactive) | > 100 µM (inactive) | > 100 µM (inactive) | > 100 µM (inactive) | > 100 µM (inactive) | > 100 µM (inactive) | – | – | – | –
2 | Cc1nnc2sc(N/N=C/c3ccccc3)nn12 | > 100 µM (inactive) | 61.2 µM (inactive) | > 100 µM (inactive) | > 100 µM (inactive) | 23.5 µM (inactive) | > 100 µM (inactive) | > 100 µM (inactive) | > 100 µM (inactive) | > 100 µM (inactive) | > 100 µM (inactive) | > 100 µM (inactive) | > 100 µM (inactive) | > 100 µM (inactive) | > 100 µM (inactive) | > 100 µM (inactive) | > 100 µM (inactive) | > 100 µM (inactive) | > 100 µM (inactive) | – | –
3 | CC1=CC(=O)/C(=C/NC(=S)Nc2ccc(S(N)(=O)=O)cc2)C(=O)O1 | > 100 µM (inactive) | > 100 µM (inactive) | > 100 µM (inactive) | > 100 µM (inactive) | > 100 µM (inactive) | > 100 µM (inactive) | > 100 µM (inactive) | > 100 µM (inactive) | > 100 µM (inactive) | 83.6 µM (inactive) | > 100 µM (inactive) | > 100 µM (inactive) | > 100 µM (inactive) | > 100 µM (inactive) | > 100 µM (inactive) | > 100 µM (inactive) | – | > 100 µM (inactive) | > 100 µM (inactive) | –
4 | COC(=O)N/N=C(/Cc1occc(=O)c1O)C(=O)Nc1ccc([N+](=O)[O-])cc1[N+](=O)[O-] | > 100 µM (inactive) | > 100 µM (inactive) | > 100 µM (inactive) | > 100 µM (inactive) | > 100 µM (inactive) | > 100 µM (inactive) | > 100 µM (inactive) | – | > 100 µM (inactive) | > 100 µM (inactive) | > 100 µM (inactive) | > 100 µM (inactive) | > 100 µM (inactive) | > 100 µM (inactive) | > 100 µM (inactive) | > 100 µM (inactive) | > 100 µM (inactive) | > 100 µM (inactive) | > 100 µM (inactive) | > 100 µM (inactive)
5 | CC(=O)OC1COC(N2C(=O)C(=O)c3cc(Br)c([N+](=O)[O-])cc32)C(OC(C)=O)C1OC(C)=O (configuration not stated) | 86.5 µM (inactive) | 59.2 µM (inactive) | > 100 µM (inactive) | > 100 µM (inactive) | 49.3 µM (inactive) | 55 µM (inactive) | > 100 µM (inactive) | – | > 100 µM (inactive) | 32.1 µM (inactive) | > 100 µM (inactive) | > 100 µM (inactive) | > 100 µM (inactive) | > 100 µM (inactive) | > 100 µM (inactive) | > 100 µM (inactive) | 71 µM (inactive) | > 100 µM (inactive) | 31 µM (inactive) | 29.1 µM (inactive)
6 | CCCC(=O)OC[n+]1ccc2c(C)c3[nH]c4ccc(OC)cc4c3c(C)c2c1 | 0.74 µM (active) | 0.313 µM (active) | 2.9 µM (inactive) | 0.625 µM (active) | 1.06 µM (active) | 0.347 µM (active) | 0.427 µM (active) | – | 0.0692 µM (active) | 1.09 µM (active) | 0.714 µM (active) | 0.0953 µM (active) | 0.708 µM (active) | 0.581 µM (active) | 1.19 µM (inactive) | 0.675 µM (active) | 1.45 µM (inactive) | 0.337 µM (active) | 0.259 µM (active) | 0.0486 µM (active)
7 | Fc1ccc(C(OCCN2CCC3CCC(C2)N3C/C=C/c2cccnc2)c2ccc(F)cc2)cc1 (configuration not stated) | 2.24 µM (inactive) | 12.8 µM (inactive) | 11.5 µM (inactive) | 13.3 µM (inactive) | 12.3 µM (inactive) | 12.8 µM (inactive) | 1.3 µM (inactive) | 11.1 µM (inactive) | 10.1 µM (inactive) | 5.28 µM (inactive) | 14.2 µM (inactive) | 5.27 µM (inactive) | 2.53 µM (inactive) | 9.23 µM (inactive) | 4.01 µM (inactive) | 13.8 µM (inactive) | 4.08 µM (inactive) | 10.5 µM (inactive) | – | –
8 | O=C(Nc1nc2ccc([N+](=O)[O-])cc2s1)C(=O)C(C1OC(=O)c2ccccc21)[N+](=O)[O-] (configuration not stated) | > 100 µM (inactive) | 76.9 µM (inactive) | 69.2 µM (inactive) | 42.2 µM (inactive) | 65.8 µM (inactive) | 55.2 µM (inactive) | > 100 µM (inactive) | – | > 100 µM (inactive) | 27.5 µM (inactive) | 31.9 µM (inactive) | > 100 µM (inactive) | > 100 µM (inactive) | 91.2 µM (inactive) | 64.6 µM (inactive) | > 100 µM (inactive) | > 100 µM (inactive) | > 100 µM (inactive) | 63.2 µM (inactive) | 54.1 µM (inactive)
9 | C[C@H]1S[C@H](c2c(F)cccc2F)n2c1nc1ccccc12 | 71.3 µM (inactive) | 60.5 µM (inactive) | > 100 µM (inactive) | > 100 µM (inactive) | 63.1 µM (inactive) | 34.8 µM (inactive) | 37 µM (inactive) | 34 µM (inactive) | 88.1 µM (inactive) | 28.6 µM (inactive) | > 100 µM (inactive) | 64.9 µM (inactive) | 38.5 µM (inactive) | 39.1 µM (inactive) | 20.2 µM (inactive) | 66.8 µM (inactive) | 41.5 µM (inactive) | 86.5 µM (inactive) | – | –
10 | NS(=O)(=O)c1ccc(NCc2nc3ccccc3[nH]2)cc1 | – | > 100 µM (inactive) | > 100 µM (inactive) | > 100 µM (inactive) | > 100 µM (inactive) | > 100 µM (inactive) | > 100 µM (inactive) | > 100 µM (inactive) | – | > 100 µM (inactive) | > 100 µM (inactive) | > 100 µM (inactive) | > 100 µM (inactive) | > 100 µM (inactive) | > 100 µM (inactive) | > 100 µM (inactive) | > 100 µM (inactive) | > 100 µM (inactive) | – | –
11 | Cc1ccc(-c2c(C#N)c(-c3ccc(Cl)cc3)c(C#N)c(=O)n2NS(=O)(=O)c2ccc(C)cc2)cc1 | 30.3 µM (inactive) | 26.3 µM (inactive) | 56.1 µM (inactive) | 29.2 µM (inactive) | 18 µM (inactive) | – | 42.1 µM (inactive) | 30.6 µM (inactive) | 35.8 µM (inactive) | 21 µM (inactive) | 19.5 µM (inactive) | 42.4 µM (inactive) | 19.5 µM (inactive) | 24 µM (inactive) | 23.1 µM (inactive) | 43.3 µM (inactive) | 20.8 µM (inactive) | 22.5 µM (inactive) | – | –
